Assay results reported in patent US11166922B2, “Method for treating hyperhidrosis with dexmecamylamine” (Atacama Therapeutics, Inc., priority 2014, dated 2021).

Legend:
[1] = human, in vivo, po; cited from earlier work
[2] = system: subjects with overactive bladder; assay type: in vivo, human
Description: Dexmecamylamine is a use-dependent potent inhibitor of the α3 nicotinic receptor subtype (e.g., α3β2 and α3β4). Such receptors are expressed in the urothelium and regulate bladder smooth muscle contraction. (Beckel et al., Expression of functional nicotinic acetylcholine receptors in rat urinary bladder epithelial cells, Am. J. Physiol. Renal Physiol. 290:F103-110, 2006). A clinical study was performed to evaluate the safety, tolerability, and efficacy of dexmecamylamine (TC-5214) for the treatment of Overactive Bladder (OAB). The study included a three- or five-week screening period, followed by a 12-week treatment period during which patients received either one of three doses of dexmecamylamine or placebo twice daily, randomized in a ratio of 2:1:1:1 (placebo, low dose, mid dose, high dose), with a two-week follow-up period. A total of 768 subjects with overactive bladder were randomized into the double-blind treatment period of the study. On Jul. 28, 2014, Targacept announced top-line results from the Phase 2b clinical trial of TC-5214 as a treatment for overactive bladder (OAB). […] See also, PCT Application No. […], which published as WO 2013/142162 A1.
As noted hereinabove, a clinical study was performed to evaluate the safety, tolerability, and efficacy of dexmecamylamine (TC-5214) for the treatment of Overactive Bladder (OAB). The study included a three- or five-week screening period, followed by a 12-week treatment period during which patients received either one of three doses of dexmecamylamine or placebo twice daily, randomized in a ratio of 2:1:1:1 (placebo, low dose, mid dose, high dose), with a two-week follow-up period. A total of 768 subjects with overactive bladder were randomized into the double-blind treatment period of the study. […] See also, PCT Application No. PCT/US2013/030640, which published as WO 2013/142162 A1.

[3] = system: Major Depressive Disorder (MDD) subjects; assay type: in vivo, human
Description: More recently, dexmecamylamine was evaluated as adjunctive therapy in the treatment of major depressive disorder (MDD) in a large international Phase 3 depression program. […] More than 2400 subjects have received dexmecamylamine in double-blind or open-label studies.
No safety studies using dexmecamylamine have been performed in OAB. Phase 2 and Phase 3 clinical studies using dexmecamylamine in Major Depressive Disorder (MDD) have been conducted and completed. […] Briefly, in the fixed dose Phase 3 studies in MDD, at doses of 2 mg BID (the maximum doses to be studied in the OAB study), the most frequent treatment emergent adverse events that were reported more than 2% more commonly in the dexmecamylamine group compared to placebo group were: constipation (15.2% dexmecamylamine vs. 3.8% placebo): and dry mouth (7.0% dexmecamylamine vs. 1.3% placebo).

[4] = Excretion of dexmecamylamine in urine; details: in vivo
Text: The exposure differential results in the ability of dexmecamylamine to target local nicotinic receptors in the urothelium that affect bladder contraction frequency while limiting systemic side effects. Consequently, the potential for dexmecamylamine to treat OAB through its action on nAChRs in the bladder urothelium warrants further investigation.

sympathetic activities = assay: Dose-responses for inhibition of sympathetic activities at low and high firing frequency (FIG. 2); details: 1 Hz versus 10 Hz firing frequency
Description: This is believed due, in part, to the fact that TC-5214 potency will increase with frequency due to its slow off-rate kinetics. See FIG. 2, which illustrates a 10-fold shift to the left with increasing frequency. The effective dose range, therefore, is believed to be between 0.1 and 1 mg; with a top dose at 2 mg once per day, since sympathetic activity decreases at night in primary hyperhidrosis. […] The potency of TC-5214 shifts to the left (red/triangle curve) thereby reducing sweating due to overactive sympathetic but remain too low to induce inhibition of the parasympathetic and associated side effects, including urinary retention and constipation.

[5] = pre-clinical; see U.S. Pat. No. 7,101,916; cited from earlier work

SMILES | absorption from the gastrointestinal tract [1] | micturition frequency per 24 hours (co-primary endpoint) ([2]; high dose, twice daily, after 12 weeks of treatment, p=0.033) | episodes of urinary incontinence per 24 hours (co-primary endpoint) ([2]; high dose, twice daily, after 12 weeks of treatment, p=0.379) | safety and tolerability ([2]; human, in vivo) | placebo corrected rate of constipation ([2]; human, in vivo, 12 weeks) [%] | rate of urinary tract infection (placebo corrected) ([2]; human, in vivo, 12 weeks) [%] | efficacy in the treatment of depression ([3]; adjunctive therapy, Phase 3 depression program) | safety and tolerability ([3]; human, in vivo) | vital signs, blood or urine laboratory measurements, ECG conduction intervals, suicidality ([3]; human, in vivo) | excretion in the urine [4] | shift of potency (dose-response to the left) with increasing frequency (sympathetic activities) [fold] | safety profile versus mecamylamine and its R-isomer [5]
CNC1(C)C2CCC(C2)C1(C)C.Cl (racemic) [mecamylamine, N,2,3,3-tetramethylbicyclo[2.2.1]heptan-2-amine hydrochloride] | nearly complete absorption |  |  |  |  |  |  |  |  |  |  | 
CNC1(C)[C@H]2CCC(C2)C1(C)C (stereo in doubt) [TC-5214, (S)-N,2,3,3-tetramethylnorbornan-2-amine] |  | statistically significant reduction | improvement that did not reach statistical significance | generally safe and well tolerated | 15.1 | 5.9 | failed to demonstrate efficacy | generally safe and well-tolerated | no noteworthy differences | excreted almost entirely unchanged in the urine | 10 | superior safety profile
